# Assay results: patent publication US8163793B2, “Proline derivatives” (Hoffman-La Roche Inc., priority 2009, dated 2012)
# Columns and labels:
# [1] = target: Cat L (UniProt P07711); assay: Cathepsin enzyme inhibition assay (fluorogenic peptide substrate Z-Val-Val-Arg-AMC), Cathepsin L; format: biochemical, human and mouse; details: enzyme 1 nM, substrate 20 μM, pH 6.5; read-out: CatL IC50
# Outline: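 Cathepsin L at 1 nM was mixed with compound, then started with 20 μM Z-Val-Val-Arg-AMC in pH 6.5 potassium phosphate with EDTA, Triton X-100 and 5 mM DTT. AMC fluorescence (ex 360/em 465 nm) was followed over 20 min. IC50 is given in μM.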
# [2] = target: Cathepsin S (UniProt P25774); assay: Cathepsin enzyme inhibition assay (fluorogenic peptide substrate Z-Val-Val-Arg-AMC), Cathepsin S; format: biochemical, human and mouse; details: enzyme 1 nM, substrate 20 μM, pH 6.5; read-out: CatS IC50
# Outline: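 Human or mouse cathepsin S (1 nM) was run in 100 mM potassium phosphate pH 6.5 with 5 mM EDTA, 0.001% Triton X-100 and 5 mM DTT. The rise in AMC fluorescence from cleavage was measured, and IC50 values were calculated by standard methods and expressed in μM.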
Compound,IC50 [1] [nM],IC50 [2] [nM]
"Cc1cc(N2C[C@H](S(=O)(=O)c3ccc(N4CCN(C)CC4)cc3C(F)(F)F)C[C@H]2C(=O)NC2(C#N)CC2)n(C2CCC2)n1 [Example 389, (2S,4R)-1-(2-Cyclobutyl-5-methyl-2H-pyrazol-3-yl)-4-[4-(4-methyl-piperazin-1-yl)-2-trifluoromethyl-benzenesulfonyl]-pyrrolidine-2-carboxylic acid (1-cyano-cyclopropyl)-amide]",8060,0.2
"N#CCNC(=O)[C@@H]1C[C@@H](S(=O)(=O)c2ccccc2C(F)(F)F)CN1C(=O)C1CCOCC1 [Example 68, (2S,4R)-1-(Tetrahydro-pyran-4-carbonyl)-4-(2-trifluoromethyl-benzenesulfonyl)-pyrrolidine-2-carboxylic acid cyanomethyl-amide]",≥ 25000,0.3
"N#CC1(NC(=O)[C@@H]2C[C@@H](S(=O)(=O)c3ccccc3Cl)CN2CCC(F)(F)F)CC1 [Example 91, (2S,4R)-4-(2-Chloro-benzenesulfonyl)-1-(3,3,3-trifluoro-propyl)-pyrrolidine-2-carboxylic acid (1-cyano-cyclopropyl)-amide]",≥ 25000,120
"CC1(C(=O)N2C[C@H](S(=O)(=O)c3ccc(OCC(F)(F)F)cc3Cl)C[C@H]2C(=O)NC2(C#N)CC2)COC1 [Example 294, (2S,4R)-4-[2-Chloro-4-(2,2,2-trifluoro-ethoxy)-benzenesulfonyl]-1-(3-methyl-oxetane-3-carbonyl)-pyrrolidine-2-carboxylic acid (1-cyano-cyclopropyl)-amide]",7840,0.353
"N#CC1(NC(=O)[C@@H]2C[C@@H](S(=O)(=O)c3ccc(F)cc3Cl)CN2)CC1 [Example 144, (2S,4R)-4-(2-Chloro-4-fluoro-benzenesulfonyl)-pyrrolidine-2-carboxylic acid (1-cyano-cyclopropyl)-amide]",28200,9.7
